Assay results taken from US20250127913A1, “BIFUNCTIONAL FOLATE RECEPTOR BINDING COMPOUNDS” (LYCIA THERAPEUTICS, INC., priority 2021, published 2025).

Key:
THP-1 cells = experiment: Compound mediated uptake of TNFα-pHrodo in THP-1 cells (flow cytometry); type: cell-based; design: key to Uptake in THP1 cells (run) 2 / Uptake in THP1 cells (run) 3 / Uptake in THP1 cells (run) 4: + = ΔMFI less than that of I-17; ++ = ΔMFI ≈ to that of I-17; +++ = ΔMFI greater than that of I-17; conditions: ΔMFI compared with I-17, uptake at 10 μM
TNFα trimer = TNFα trimer (Homo sapiens, UniProt P01375); experiment: SPR binding kinetics of compounds to TNFα trimer; conditions: class symbols
Sequence of TNFα trimer (P01375 77-233 limits assumed): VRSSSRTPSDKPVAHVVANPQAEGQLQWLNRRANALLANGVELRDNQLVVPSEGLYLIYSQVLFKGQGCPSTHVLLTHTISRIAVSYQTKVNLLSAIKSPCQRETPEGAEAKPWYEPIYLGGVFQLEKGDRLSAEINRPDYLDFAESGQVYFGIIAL
Method: Streptavidin 100 μg/mL Streptavidin (Invitrogen Cat #: 434302) diluted in 10 mM sodium acetate, pH 4.5) was immobilized to both the reference and active surfaces as described in Example 51. The surfaces were conditioned with three injections of running Buffer (10 mM HEPES, 150 mMNaCl, 0.05% T20, pH 7.5, 2% DMSO) at a flow rate of 10 μL/min, Contact time: 60 s. Flow rate: 10 μL/min. The active surface was treated with biotinylated linked TNFα trimer 20 μg/mL diluted in running buffer at a flow rate of 5 μL/min contact time: 600 s, yielding a final response of ˜3000 RU. Example compounds were then serially diluted 1:1 in running buffer (10 mM HEPES, 150 mM NaCl, 0.05% T20, pH 7.5, 2% DMSO) from 30 uM to 937.5 nM and flowed over the active and reference surfaces from lowest concentration to greatest concentration in the single-cycle kinetics format, and then allowed to dissociate in running buffer for 7200 s, at 30 μL/min. Sensorgrams were solvent corrected, double-referenced, and the data fitted and analyzed in Biacore Insight Evaluation Software Version 3.0.11.15423.

FOLR2 = FOLR2 (Homo sapiens (Human), UniProt P14207); experiment: SPR binding kinetics of compounds to folate receptor (FOLR2 immobilized on CM5 chip)
Sequence of FOLR2 (P14207 17-255): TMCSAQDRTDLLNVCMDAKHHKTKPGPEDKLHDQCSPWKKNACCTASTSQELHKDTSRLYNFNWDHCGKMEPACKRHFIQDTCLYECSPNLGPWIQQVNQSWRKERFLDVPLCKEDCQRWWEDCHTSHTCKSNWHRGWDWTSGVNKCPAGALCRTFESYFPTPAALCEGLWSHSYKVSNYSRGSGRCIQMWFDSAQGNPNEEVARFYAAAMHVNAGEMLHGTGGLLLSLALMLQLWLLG
Method: A Biacore 8K+ was used to measure the association and dissociation rates of example compounds to FOLR2 (Acro Biosystems, Cat: F02-H5223-100 μg). Briefly, FOLR2 was reconstituted according to the manufacture's instructions to 200 μg/mL. Both the active and reference surfaces of a Cytiva CM5 Series S Sensor Chip were activated with a 1:1 mixture of 400 mM EDC and 100 mM NHS for 420 s at 10 μL/min. 25 μg/mL FOLR2 diluted in Sodium Acetate pH 5.5 was injected on the active channel (Flow Cell 2) for 420 s at 10p/min. Both the reference and active surfaces were then capped with 1M ethanolamine, pH 8.5 for 420 s, achieving an immobilization level of ˜4200 RU. Example compounds were serially diluted 1:1 in running buffer (10 mM HEPES, 150 mM NaCl, 0.05% T20, pH 7.5, 2% DMSO) from 100 nM to 3.125 nM and flowed over the active and reference surfaces for 120 s, and then allowed to dissociate in running buffer for 600 s, at 30 uL/min. The FOLR2 immobilized active surface and the reference surface were regenerated with a 30 s pulse of Sodium Acetate pH 5.5 at 30 μL/min. Sensorgrams were solvent corrected, double-referenced, and the data fitted and analyzed in Biacore Insight Evaluation Software Version 3.0.11.15423.

[1] = system: TNFα trimer complex to folate receptor (FOLR2); experiment: SPR co-engagement of compound-TNFα trimer complex to folate receptor; conditions: TNFα + 10 nM compound binding FOLR2
Method: The active (Flow cell 2) surfaces of a Cytiva CM5 Series S Sensor Chip functionalized with FOLR2 as described in Example 58. Example compounds were diluted to 10 nM with 50 and 100 nM TNFα single chain trimer or 150 nM and 300 nM TNFα native monomer in running buffer (10 mM HEPES, 150 mM NaCl, 0.05% T20, pH 7.5, 2% DMSO), allowed to incubate for 5 hours at 25° C. and then flowed over the active and reference surfaces for 110 s, and then allowed to dissociate in running buffer for 600 s, at a flow rate of 30 μL/min. The FOLR2 immobilized active surface and the reference surface were regenerated with a 30 s pulse of 4M MgCl2 at 30 μL/min then allowed to equilibrate 240 s. Sensorgrams were solvent corrected, double-referenced, and the data fitted and analyzed in Biacore Insight Evaluation Software Version 3.0.11.15423.

Row | Compound | Kd (TNFα trimer) [nM] | Kd (FOLR2) [nM] | co-engagement / complex formation observed on SPR [1] | Uptake in THP1 cells (run) 2 (THP-1 cells) | Uptake in THP1 cells (run) 3 (THP-1 cells) | Uptake in THP1 cells (run) 4 (THP-1 cells)
1 | Cc1nc2cc(F)c(-c3cnc(OCCCCCn4cc(COCCOCCOCCOCCOCCOCCOCCOCCOCCOCCNC(=O)CC[C@H](NC(=O)c5ccc(NCc6cnc7nc(N)nc(O)c7n6)cc5)C(=O)O)nn4)nc3)nc2c(N[C@H](C)c2cc(C#N)ccc2F)c1Cl [Compound I-20, (S)-36-(4-(((2-amino-4-hydroxypteridin-6-yl)methyl)amino)benzamido)-1-(1-(5-((5-(7-chloro-8-(((R)-1-(5-cyano-2-fluorophenyl)ethyl)amino)-3-fluoro-6-methyl-1,5-naphthyridin-2-yl)pyrimidin-2-yl)oxy)pentyl)-1H-1,2,3-triazol-4-yl)-33-oxo-2,5,8,11,14,17,20,23,26,29-decaoxa-32-azaheptatriacontan-37-oic acid] | < 1000 | 0.2 | complex formation observed | +++ | + | ++
2 | Cc1nc2ccc(-c3ccc(N4CCN(CCOCCn5cc(COCCOCCOCCOCCNC(=O)CC[C@H](NC(=O)c6ccc(NCc7cnc8nc(N)nc(O)c8n7)cc6)C(=O)O)nn5)CC4)nc3)cn2c1Cc1ccccc1OC(F)F (racemic) [Compound I-22, rac-(R)-18-(4-(((2-amino-4-hydroxypteridin-6-yl)methyl)amino)benzamido)-1-(1-(2-(2-(4-(5-(3-(2-(difluoromethoxy)benzyl)-2-methylimidazo[1,2-a]pyridin-6-yl)pyridin-2-yl)piperazin-1-yl)ethoxy)ethyl)-1H-1,2,3-triazol-4-yl)-15-oxo-2,5,8,11-tetraoxa-14-azanonadecan-19-oic acid] | < 5000 | 0.3 | complex formation observed | + | + | +
3 | Cc1nc2cc(F)c(-c3cnc(OCCCCCn4cc(COCCNC(=O)CC[C@H](NC(=O)c5ccc(NCc6cnc7nc(N)nc(O)c7n6)cc5)C(=O)O)nn4)nc3)nc2c(N[C@H](C)c2cc(C#N)ccc2F)c1Cl [Compound I-15, N2-(4-(((2-amino-4-hydroxypteridin-6-yl)methyl)amino)benzoyl)-N5-(2-((1-(5-((5-(7-chloro-8-((I-1-(5-cyano-2-fluorophenyl)ethyl)amino)-3-fluoro-6-methyl-1,5-naphthyridin-2-yl)pyrimidin-2-yl)oxy)pentyl)-1H-1,2,3-triazol 4-yl)methoxy)ethyl)-L-glutamine] | < 100 | 0.3 | complex formation observed | – | +++ | ++

Further lines, with some results ahead:

Row | Kd (TNFα trimer) [nM] | Kd (FOLR2) [nM] | co-engagement / complex formation observed on SPR [1] | Compound | Uptake in THP1 cells (run) 2 (THP-1 cells) | Uptake in THP1 cells (run) 3 (THP-1 cells) | Uptake in THP1 cells (run) 4 (THP-1 cells)
4 | < 100 | 0.4 | complex formation observed | Cc1nc2cc(F)c(-c3cnc(OCCCCCn4cc(COCCOCCOCCOCCOCCOCCNC(=O)CC[C@H](NC(=O)c5ccc(NCc6cnc7nc(N)nc(O)c7n6)cc5)C(=O)O)nn4)nc3)nc2c(N[C@H](C)c2cc(C#N)ccc2F)c1Cl [Compound I-18, (S)-24-(4-(((2-amino-4-hydroxypteridin-6-yl)methyl)amino)benzamido)-1-(1-(5-((5-(7-chloro-8-((I-1-(5-cyano-2-fluorophenyl)ethyl)amino)-3-fluoro-6-methyl-1,5-naphthyridin-2-yl)pyrimidin-2-yl)oxy)pentyl)-1H-1,2,3-triazol-4-yl)-21-oxo-2,5,8,11,14,17-hexaoxa-20-azapentacosan-25-oic acid] | +++ | ++ | +++
5 | < 100 | 0.2 | complex formation observed | Cc1nc2cc(F)c(-c3cnc(OCCCCCn4cc(CNC(=O)CC[C@H](NC(=O)c5ccc(NCc6cnc7nc(N)nc(O)c7n6)cc5)C(=O)O)nn4)nc3)nc2c(N[C@H](C)c2cc(C#N)ccc2F)c1Cl [Compound I-14, N2-(4-(((2-amino-4-hydroxypteridin-6-yl)methyl)amino)benzoyl)-N5-((1-(5-((5-(7-chloro-8-(((R)-1-(5-cyano-2-fluorophenyl)ethyl)amino)-3-fluoro-6-methyl-1,5-naphthyridin-2-yl)pyrimidin-2-yl)oxy)pentyl)-1H-1,2,3-triazol-4-yl)methyl)-L-glutamine] | + | ++ | –
